Molecules are shown by their SMILES. Counter-ions that a name gives are not always drawn.

Data set [1] concerns the target T1, 5-HT1A receptor (Rattus norvegicus, UniProt P19327).
T1 construct: the cerebral cortex is sampled and homogenized in 20 volumes of buffer; from tissue; host or cells: rat cerebral cortex homogenate (membranes)
T1 sequence (P19327 1-422): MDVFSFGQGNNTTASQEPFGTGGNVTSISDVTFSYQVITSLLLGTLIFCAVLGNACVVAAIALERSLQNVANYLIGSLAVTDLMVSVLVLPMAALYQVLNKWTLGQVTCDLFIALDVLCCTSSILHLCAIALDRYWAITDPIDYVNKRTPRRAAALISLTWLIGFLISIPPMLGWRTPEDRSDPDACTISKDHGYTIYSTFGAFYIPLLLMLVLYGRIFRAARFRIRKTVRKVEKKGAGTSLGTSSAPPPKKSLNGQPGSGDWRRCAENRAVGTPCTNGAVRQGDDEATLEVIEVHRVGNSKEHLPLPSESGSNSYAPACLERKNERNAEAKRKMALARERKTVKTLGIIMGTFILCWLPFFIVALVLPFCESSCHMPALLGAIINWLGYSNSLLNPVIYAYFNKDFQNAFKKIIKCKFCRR
As to the kind of experiment: Affinity for 5-HT1A receptors, shift of (3H)8-OH-DPAT in rat cerebral cortex. To be noted: mean of at least 3 experiments, read-out: 5-HT1A affinity (pKi) (converted). Format: binding. As for the experimental part: (§1) The affinity of the compounds of the invention for the rat 5-HT1A receptor was measured conventionally from competitive experiments with a radiolabelled 5-HT1A agonist. […] This test is widely used since it is predictive of antidepressant action in man. Analgesic activity was determined after intra-peritoneal administration to rats, both with a physiological pain model and a pathological pain model. By physiological pain, the inventors designate pain whose origin is a lesion and/or organic ill-function such as pain caused by excessive nociceptive stimuli.
The in vitro affinity of the compounds of the invention for the 5-HT1A receptors was determined by measuring the shift of (^3H)8-OH-DPAT (agonist of 5HT1A receptors labelled with tritium, TRK 850; 160-240 Ci/mmole).
The study on binding with the 5-HT1A receptor was conducted as described in Naunyn-Schmiedeberg's Arch. Pharmaco. 1991, 343, 106. For these experiments, rat cerebral cortices were used. After unfreezing the brain in Tris-HCl buffer 50 mmol, pH=7.40 at 25° C., the cerebral cortex is sampled and homogenized in 20 volumes of buffer held at 4° C. The homogenate is centrifuged at 39000 g for 10 min, the centrifuge residue is suspended in the same volume of buffer and again centrifuged. After further suspension under the same conditions, the homogenate is incubated for 10 min at 37° C. then again centrifuged. The final residue is suspended in cold reaction buffer Tris-HCl 50 mmol, pH=7.40 at 25° C. containing […] of pargyline, 4 mmol of CaCl2 and 0.10% ascorbic acid. The final concentration of the tissue in the incubation medium is 10 mg/tube.
The reaction tubes contain 0.10 mL of (^3H)8-OH-DPAT (final […]), 0.10 mL of product to be tested 6-7 concentrations and 0.80 mL of tissue. Non-specific binding is defined using […] of 5-HT. The reaction tubes are incubated at 23° C. for 30 min then their content is rapidly vacuum filtered through Whatman GF/B filters, the tubes are rinsed with 2×5 mL of Tris-HCl buffer 50 mmol, pH=7.4 at 25° C. Radioactivity is collected on the filter and analyzed by liquid scintillation by adding 4 mL of scintillating liquid (Emulsifier Safe, Packard). All experiments were performed in triplicate.
The inhibition constants (Ki) of the products of the invention are estimated from shift experiments using the non-linear regression programme RADLIG version 4 by EBDA (Equilibrium Binding Data Analysis Biosoft, Cambridge, UK, Mc Pherson, 1985). The dissociation constant of the radioactive ligand used for calculations is […] for (^3H)8-OH-DPAT. The values of pKi (−log Ki) are given in the form mean±SEM of at least 3 experiments.

Data set [2] deals with rats, forced swimming immobility. As to the kind of experiment: Forced swimming test (antidepressant activity). To be noted: rat, oral, even at a dose of 40 mg/Kg. Format: in vivo. As for the experimental part:
as §1
The rats (Male Sprague Dawley rats (ICO: OFA SD [IOPS], Iffa Credo, France), are placed in a cylinder (45 cm high and 20 cm in diameter) filled with water at 25° C.±0.5 up to a height of 17 cm. This depth allows rats to swim or float without their tail touching the bottom of the cylinder.
24 h before the test day, the rats are placed in the cylinder for 15 min, a lapse of time after which they no longer attempt to escape and remain immobile. On the test day the animals are replaced in the cylinder and the duration of animal immobility is measured by direct observation followed by verification of an audiovisual recording for 5 min. The products of the invention are administered by oral route 60 min before the test. A rat is considered to be immobile if it allows itself to float and only makes small movements to remain on the surface. Two rats are observed at the same time.
(§2) Quantification of the effect of the compounds of the invention on the forced swimming tests and on the formol test is conducted by one-factor variance analysis between groups (ANOVA analysis) followed by a multiple comparison test (Dunnett's test) versus control animals. The ED50 value is calculated using Litchfield and Wilcoxon analysis from the percentage of responding animals.

For data set [3], the system named is rats, formol-induced pain. The data set is described as follows: Formol test (analgesic activity, physiological pain). To be noted: rat, i.p. Format: in vivo.
Text: (§3) The physiological pain model chosen by the inventors to determine the analgesic activity of the compounds of the invention uses excess nociceptive stimuli (injection of formol) to cause a painful sensation in animal (Eur. J. Pharmacol. 2001, 421, 109). For the so-called pathological pain model in animal, the inventors chose to use pain induced by the injection of a cytotoxic agent such as oxaliplatine (Eur. J. Cancer 2007, 2658).
The rats (Male Sprague Dawley rats (ICO: OFA SD [IOPS], Iffa Credo, France) are placed in plexiglass observation boxes above an angled mirror so as to facilitate observation of the hind paws. After thirty minutes of habituation, the animals are given an injection of formol diluted to 2.5% on the plantar surface of the right hind paw. The injection of formol produces behavioural responses which occur in two phases:
an acute phase, from 0 to 5 min after injection of the formol, corresponding to stimulation of receptors specialized in the transmission of pain messages to the spinal cord.
a late phase which occurs 20 to 30 min after the injection. This phase corresponds to stimulation of receptors by inflammatory mediators and/or to hyper-excitability of the dorsal horn induced during the first phase. This late phase therefore involves central sensitization.
For the study of the compounds of the invention we selected two expressions of painful behaviour and chose two periods of observation which correspond to the two pain phases (i.e. 0-5 min and 22.5-27.5 min). During these two 5-min periods the animals are observed every 30 seconds and are given scores for the following behaviours: paw licking or not of the injected paw, and lifting or non-lifting of the injected paw. Ten observations give a maximum score of 10 for each parameter for each of the 2 phases. The products of the invention are administered via intraperitoneal route 15 min before the injection of formol.
as §2
For this test, the animals are observed every 30 seconds during two periods of 5 min. The following behaviours are noted: paw licking or not of the injected paw, and paw lifting or not of the injected paw. Ten observations give a maximum score of 10 for each parameter for each of the 2 phases, measuring either paw lifting or paw licking. This test was also performed by comparison with administration of the vehicle (veh) alone.

The test system of data set [4] is rats, oxaliplatine-induced allodynia. The data set is described as follows: Oxaliplatine test, von Frey (analgesic activity, pathological pain). Format: in vivo. To be noted: rat, i.p., even at a dose of 2.5 mg/kg.
Text: as §3
The rats (Male Sprague Dawley rats (ICO: OFA SD [IOPS], Iffa Credo, France) are tested a first time on the Friday to determine their mechanical sensitivity threshold (von Frey test). They are then given an intra-peritoneal injection (i.p.) of oxaliplatine (anticancer treatment causing neuropathic pain in patients) at a dose of 8 mg/kg. This dose in rat induces neuropathy which translates as mechanical hypersensitivity (allodynia) which develops 3 days after the injection with a peak on day five. For the study of the compounds of the invention, the animals are re-tested on day five, 15 min after administration of the compound via intra-peritoneal route.
The pressure force is then measured (in g) at which withdrawal of the paw of the animals is observed.

For the molecule `O=C(c1ccc(F)c(Cl)c1)N1CCC(F)(CNCC2CNc3cccc(F)c3O2)CC1` (stereo not drawn) (as salt: fumarate) [Compound 1b, (3-Chloro-4-fluoro-phenyl)-{4-fluoro-4-[(3,4-dihydro-2H-8-fluoro-1,4-benzoxazine-2-methanamino)-methyl]-piperidin-1-yl}-methanone], the melting point – broadly, the temperature, or range, at which the solid turns liquid – is 100 °C.
Regarding `CN1CC(CNCC2(F)CCN(C(=O)c3ccc(F)c(Cl)c3)CC2)Oc2ccccc21` (stereo not drawn) (as salt: fumarate) [Compound 1g, (3-Chloro-4-fluoro-phenyl)-{4-fluoro-4-[(3,4-dihydro-2H-4-methyl-1,4-benzoxazine-2-methanamino)-methyl]-piperidin-1-yl}-methanone], the melting point is 125 °C.
`O=C(c1ccc(F)c(Cl)c1)N1CCC(F)(CNCC2CNc3ccccc3O2)CC1` (stereo not drawn) (as salt: hydrochloride) [Compound 1a3, (3-Chloro-4-fluoro-phenyl)-{4-fluoro-4-[(3,4-dihydro-2H-1,4-benzoxazine-2-methanamino)-methyl]-piperidin-1-yl}-methanone]: the melting point was 175 °C.
With `O=C(c1ccc(F)c(Cl)c1)N1CCC(F)(CNCC2CNc3ccccc3O2)CC1` (single isomer, unassigned; (-)) (as salt: fumarate) [Compound 1a1, (−)-(3-Chloro-4-fluoro-phenyl)-{4-fluoro-4-[(3,4-dihydro-2H-1,4-benzoxazine-2-methanamino)-methyl]-pipéridin-1-yl}-methanone], the melting point was 185 °C.
As for `O=C(c1ccc(F)c(Cl)c1)N1CCC(F)(CNCC2CNc3cccc(F)c3O2)CC1` (stereo not drawn) [Compound 1b, (3-Chloro-4-fluoro-phenyl)-{4-fluoro-4-[(3,4-dihydro-2H-8-fluoro-1,4-benzoxazine-2-methanamino)-methyl]-piperidin-1-yl}-methanone], the Ki in data set [1] was 631 pM.
For the molecule `Cc1cccc2c1OC(CNCC1(F)CCN(C(=O)c3ccc(F)c(Cl)c3)CC1)CN2` (stereo not drawn) [Compound 1c, (3-Chloro-4-fluoro-phenyl)-{4-fluoro-4-[(3,4-dihydro-2H-8-methyl-1,4-benzoxazine-2-methanamino)-methyl]-piperidin-1-yl}-methanone], in data set [1], the Ki is 1230 pM.
As for `O=C(c1ccc(F)c(Cl)c1)N1CCC(F)(CNCC2CNc3cccc(Cl)c3O2)CC1` (stereo not drawn) [Compound 1d, (3-Chloro-4-fluoro-phenyl)-{4-fluoro-4-[(3,4-dihydro-2H-8-chloro-1,4-benzoxazine-2-methanamino)-methyl]-piperidin-1-yl}-methanone], the Ki in data set [1] is 2290 pM.
Consider `COc1cccc2c1OC(CNCC1(F)CCN(C(=O)c3ccc(F)c(Cl)c3)CC1)CN2` (stereo not drawn) [Compound 1e, (3-Chloro-4-fluoro-phenyl)-{4-fluoro-4-[(3,4-dihydro-2H-8-methoxy-1,4-benzoxazine-2-methanamino)-methyl]-piperidin-1-yl}-methanone], for which the Ki in data set [1] is 1510 pM.
With `N#Cc1cccc2c1OC(CNCC1(F)CCN(C(=O)c3ccc(F)c(Cl)c3)CC1)CN2` (stereo not drawn) [Compound 1f, (3-Chloro-4-fluoro-phenyl)-{4-fluoro-4-[(3,4-dihydro-2H-8-cyano-1,4-benzoxazine-2-methanamino)-methyl]-piperidin-1-yl}-methanone], in data set [1], the Ki was 646 pM.
As to `CN1CC(CNCC2(F)CCN(C(=O)c3ccc(F)c(Cl)c3)CC2)Oc2ccccc21` (stereo not drawn) [Compound 1g, (3-Chloro-4-fluoro-phenyl)-{4-fluoro-4-[(3,4-dihydro-2H-4-methyl-1,4-benzoxazine-2-methanamino)-methyl]-piperidin-1-yl}-methanone], the Ki in data set [1] is 794 pM.
On the same count and under the same terms, for `NC(=O)c1cccc2c1OC(CNCC1(F)CCN(C(=O)c3ccc(F)c(Cl)c3)CC1)CN2` (stereo not drawn) [Compound 1h, (3-Chloro-4-fluoro-phenyl)-{4-fluoro-4-[(3,4-dihydro-2H-8-carbamoyl-1,4-benzoxazine-2-methanamino)-methyl]-piperidin-1-yl}-methanone] the value was 741 pM.
With `O=C1CC2(CCCC2)CC(=O)N1CCCCN1CCN(c2ncccn2)CC1` [buspirone, reference compound], the “effect on animal immobility” value in data set [2] is recorded as “no effect on animal immobility”. The “dose on and after which paw lifting is affected” value in data set [3] (acute phase and late phase) is at least 2.5 mg/kg. Moreover, in data set [3] (late phase), the “dose on and after which paw licking is inhibited” value is at least 2.5 mg/kg. In addition, the “analgesia, in words” value in data set [4] is “does not produce any significant analgesia”.

The values are drawn from patent publication US8669250B2, “Derivatives of aryl-{4-halogeno-4-[aminomethyl]-piperidin-1-yl}-methanone, their method of preparation and their use as medicinal products” (Pierre Fabre Medicament, priority 2009, dated 2014).
